The text below walks through data of US20260041744A1, “Methods for Treating Pompe Disease” (Amicus Therapeutics, Inc., priority 2022, published 2026).

The conditions of data set [1]: in vivo.
Description: The ongoing open-label extension (OLE) of PROPEL (NCT04138277; ATB200-07) evaluates long-term safety and efficacy of cipa/mig. Outcomes include 6 minute walk distance (6MWD), forced vital capacity (FVC), creatine kinase (CK) and hexose tetrasaccharide (Hex4) levels and safety. Data are reported as change from the PROPEL baseline to OLE week 52 (104 weeks after the PROPEL baseline).
Data set [2] has as its system adult subjects with LOPD. The experiment in a line: Study ATB200-07 (OLE of PROPEL): 6MWD and % predicted 6MWD. Type of data set: in vivo, human. From the text: (§1) The study doses and schedule are maintained from Study ATB200-03.
(§2) Efficacy data are presented in this summary as change from the baseline of Study ATB200-03 (OLE-ES Population).

Data set [3] deals with adult subjects with LOPD. In words: Study ATB200-07 (OLE): sitting % predicted FVC. Type of data set: in vivo, human.
Source text: as §1, §2

Data set [4] has as its system adult subjects with LOPD. The experiment in a line: Study ATB200-07 (OLE): CK.
Description: (§3) The Phase III double-blind PROPEL study (NCT03729362; ATB200-03) described in Examples 9 and 10 above compared the investigational two-component therapy cipaglucosidase alfa/miglustat (cipa/mig) with alglucosidase alfa/placebo (alglu) in adults with late-onset Pompe disease (LOPD) over 52 weeks. The ongoing open-label extension (OLE) of PROPEL (NCT04138277; ATB200-07) evaluates long-term safety and efficacy of cipa/mig. Outcomes include 6 minute walk distance (6MWD), forced vital capacity (FVC), creatine kinase (CK) and hexose tetrasaccharide (Hex4) levels and safety. Data are reported as change from the PROPEL baseline to OLE week 52 (104 weeks after the PROPEL baseline).
Data set [5] concerns adult subjects with LOPD. The experiment in a line: Study ATB200-07 (OLE): Hex4.
Description: as §3
The subject of data set [6] is rats. In words: Sperm characteristics and fertility in rats. Type of data set: in vivo, rat.
In data set [7] the test system is healthy adult men. The experiment in a line: Sperm parameters in healthy adult men. Type of data set: in vivo, human. The note with it: 100 mg orally twice daily for 6 weeks.
Data set [8] is described as follows: Miglustat plasma pharmacokinetics in patients, incl. renal impairment. Type of data set: in vivo, human. On the procedure:
At the recommended 260 mg dose, the mean Cmax was approximately 3 mcg/mL and the mean AUC was approximately 25 mcg*hr/mL. The mean time to reach the maximum concentration ranged from 2 hours to 3 hours.
Plasma concentrations of miglustat increased in patients with renal impairment. Accordingly, the apparent clearance of miglustat decreased with decreasing renal function. […] In some embodiments, the dosage of miglustat in patients with moderate or severe renal impairment is reduced as compared to patients with normal renal function.

For data set [9], the target named is ATB200 (Homo sapiens, UniProt P10253). The experiment in a line: Thermostability assay using SYPRO Orange. The conditions noted are these: pH 7.4.
Data set [10] concerns the target CIMPR (Homo sapiens, UniProt P11717). The experiment in a line: CIMPR affinity chromatography of rhGAA (bound vs flow-through by GAA activity). Type of data set: binding. The conditions noted are these: CIMPR affinity column. From the text: Multiple batches of the rhGAA according to the disclosure were produced in shake flasks and in perfusion bioreactors using CHO cell line GA-ATB200, the product of which is referred to as “ATB200.” Weak anion exchange (“WAX”) liquid chromatography was used to fractionate ATB200 rhGAA according to terminal phosphate and sialic acid. Elution profiles were generated by eluting the ERT with increasing amount of salt. The profiles were monitored by UV (A280 nm).
To evaluate the ability of the conventional rhGAAs in MYOZYME® and LUMIZYME® to interact with the CIMPR, the two conventional rhGAA preparations were injected onto a CIMPR affinity column (which binds rhGAA having M6P groups) and the flow through collected. The bound material was eluted with a free M6 gradient. Fractions were collected in 96-well plate and GAA activity assayed by 4MU-α-glucosidase substrate. The relative amounts of unbound (flow through) and bound (M6P eluted) rhGAA were determined based on GAA activity and reported as the fraction of total enzyme. […] Indeed, only 27% of the rhGAA in MYOZYME® and 22% of the rhGAA in LUMIZYME® contained M6P that can be productive to target it to the CIMPR on muscle cells.

Data set [11] concerns Gaa KO mice. The experiment in a line: Single fiber analysis (LAMP1/LC3 co-immunofluorescence, white gastrocnemius). Type of data set: in vivo, mouse. The note with it: mouse, in vivo. From the text:
FIG. 17 depicts co-immunofluorescent staining of LAMP1 (green) (see for example, “B”) and LC3 (red) (see, for example, “A”) in single fibers isolated from the white gastrocnemius of Gaa KO mice treated with a vehicle, alglucosidase alfa, or ATB200. “C” depicts clearance of autophagic debris and absence of enlarged lysosome. A minimum of 30 fibers were examined from each animal.
As a result, a significant portion of muscle fibers analyzed (36-60%) from ATB200-treated mice appeared normal or near-normal.

Data set [12] has as its system Pompe disease patients. The note with it: ERT-experienced patients; cited from earlier work.
Data set [13] relates to LOPD population (PROPEL target population). In words: Multi-level network meta-regression (ML-NMR) indirect treatment comparison, 6MWD and FVC change from baseline at week 52. The conditions noted are these: base-case scenario. Details: species or system human. On the procedure: Using patient-level data from the PROPEL randomized clinical trial (RCT) plus aggregate published data from other RCTs, Phase I/II and open label extension trials, a multi-level network meta-regression was conducted, adjusting for various baseline covariates including previous ERT duration. The base case scenario had covariates resembling the PROPEL population (naïve and ERT-experienced) and analyzed 6MWD and FVC change from baseline at 52 weeks.
An ITC providing relative effect estimates in the target population of interest (ie an LOPD population including a mix of ERT-naïve and ERT-experienced subjects as in the pivotal Phase III trial comparing Cipa+mig with Alglu [PROPEL]) was performed.
A systematic literature review (SLR) was conducted to identify relevant published clinical studies of ERTs in LOPD. Outcomes assessed were change from baseline in 6-minute walking distance (6MWD) (m) and in forced vital capacity (FVC; % predicted) at week 52, acknowledged by clinicians, HTA agencies and payers as key LOPD trial endpoints. Aggregate results on 6MWD and FVC change from baseline over time and baseline characteristics (age, gender, ethnicity, previous ERT duration, baseline 6MWD and baseline FVC) were extracted from included studies.
A multi-level network meta regression (ML-NMR) was performed, which is an extension of standard network meta-analyses (NMAs) that take into account the effect of study-level covariates, and that can be applied to any connected network with any mixture of individual patient-level data (IPD) and aggregate data. ML-NMR is an accepted method by the National Institute for Health and Care Excellence (NICE) in support of cost effectiveness analysis. Single-arm study results were matched to appropriate comparator arms of the comparative studies to allow for inclusion into the network. Mean treatment differences with associated 95% credible intervals (CrIs) were calculated for 6MWD and FVC change from baseline at week 52.
A base-case scenario was evaluated in which all covariates were set to the target population of the PROPEL trial. To study the impact of previous ERT duration on relative effects, ERT duration value was varied, keeping remaining covariate values as in the base-case scenario. A sensitivity analysis was performed by excluding all matched single-arm evidence from the network to assess its impact on the results.
Both fixed effects (FE) and random effects (RE) ML-NMR models were applied and the deviance information criteria (DIC) was used to assess goodness-of-fit of the models and to identify the appropriate model (FE or RE model) for the data. Models were implemented in a Bayesian framework using Stan with help of the R package multinma.
In the base-case scenario, the covariates were set to the baseline characteristics of the target population (ie the PROPEL trial; see Table 20), and time was set to 52 weeks.

Where [14] appears, read: human, plasma, oral, 260 mg dose.

Sequence of CIMPR (P11717 41-2491, species assumed): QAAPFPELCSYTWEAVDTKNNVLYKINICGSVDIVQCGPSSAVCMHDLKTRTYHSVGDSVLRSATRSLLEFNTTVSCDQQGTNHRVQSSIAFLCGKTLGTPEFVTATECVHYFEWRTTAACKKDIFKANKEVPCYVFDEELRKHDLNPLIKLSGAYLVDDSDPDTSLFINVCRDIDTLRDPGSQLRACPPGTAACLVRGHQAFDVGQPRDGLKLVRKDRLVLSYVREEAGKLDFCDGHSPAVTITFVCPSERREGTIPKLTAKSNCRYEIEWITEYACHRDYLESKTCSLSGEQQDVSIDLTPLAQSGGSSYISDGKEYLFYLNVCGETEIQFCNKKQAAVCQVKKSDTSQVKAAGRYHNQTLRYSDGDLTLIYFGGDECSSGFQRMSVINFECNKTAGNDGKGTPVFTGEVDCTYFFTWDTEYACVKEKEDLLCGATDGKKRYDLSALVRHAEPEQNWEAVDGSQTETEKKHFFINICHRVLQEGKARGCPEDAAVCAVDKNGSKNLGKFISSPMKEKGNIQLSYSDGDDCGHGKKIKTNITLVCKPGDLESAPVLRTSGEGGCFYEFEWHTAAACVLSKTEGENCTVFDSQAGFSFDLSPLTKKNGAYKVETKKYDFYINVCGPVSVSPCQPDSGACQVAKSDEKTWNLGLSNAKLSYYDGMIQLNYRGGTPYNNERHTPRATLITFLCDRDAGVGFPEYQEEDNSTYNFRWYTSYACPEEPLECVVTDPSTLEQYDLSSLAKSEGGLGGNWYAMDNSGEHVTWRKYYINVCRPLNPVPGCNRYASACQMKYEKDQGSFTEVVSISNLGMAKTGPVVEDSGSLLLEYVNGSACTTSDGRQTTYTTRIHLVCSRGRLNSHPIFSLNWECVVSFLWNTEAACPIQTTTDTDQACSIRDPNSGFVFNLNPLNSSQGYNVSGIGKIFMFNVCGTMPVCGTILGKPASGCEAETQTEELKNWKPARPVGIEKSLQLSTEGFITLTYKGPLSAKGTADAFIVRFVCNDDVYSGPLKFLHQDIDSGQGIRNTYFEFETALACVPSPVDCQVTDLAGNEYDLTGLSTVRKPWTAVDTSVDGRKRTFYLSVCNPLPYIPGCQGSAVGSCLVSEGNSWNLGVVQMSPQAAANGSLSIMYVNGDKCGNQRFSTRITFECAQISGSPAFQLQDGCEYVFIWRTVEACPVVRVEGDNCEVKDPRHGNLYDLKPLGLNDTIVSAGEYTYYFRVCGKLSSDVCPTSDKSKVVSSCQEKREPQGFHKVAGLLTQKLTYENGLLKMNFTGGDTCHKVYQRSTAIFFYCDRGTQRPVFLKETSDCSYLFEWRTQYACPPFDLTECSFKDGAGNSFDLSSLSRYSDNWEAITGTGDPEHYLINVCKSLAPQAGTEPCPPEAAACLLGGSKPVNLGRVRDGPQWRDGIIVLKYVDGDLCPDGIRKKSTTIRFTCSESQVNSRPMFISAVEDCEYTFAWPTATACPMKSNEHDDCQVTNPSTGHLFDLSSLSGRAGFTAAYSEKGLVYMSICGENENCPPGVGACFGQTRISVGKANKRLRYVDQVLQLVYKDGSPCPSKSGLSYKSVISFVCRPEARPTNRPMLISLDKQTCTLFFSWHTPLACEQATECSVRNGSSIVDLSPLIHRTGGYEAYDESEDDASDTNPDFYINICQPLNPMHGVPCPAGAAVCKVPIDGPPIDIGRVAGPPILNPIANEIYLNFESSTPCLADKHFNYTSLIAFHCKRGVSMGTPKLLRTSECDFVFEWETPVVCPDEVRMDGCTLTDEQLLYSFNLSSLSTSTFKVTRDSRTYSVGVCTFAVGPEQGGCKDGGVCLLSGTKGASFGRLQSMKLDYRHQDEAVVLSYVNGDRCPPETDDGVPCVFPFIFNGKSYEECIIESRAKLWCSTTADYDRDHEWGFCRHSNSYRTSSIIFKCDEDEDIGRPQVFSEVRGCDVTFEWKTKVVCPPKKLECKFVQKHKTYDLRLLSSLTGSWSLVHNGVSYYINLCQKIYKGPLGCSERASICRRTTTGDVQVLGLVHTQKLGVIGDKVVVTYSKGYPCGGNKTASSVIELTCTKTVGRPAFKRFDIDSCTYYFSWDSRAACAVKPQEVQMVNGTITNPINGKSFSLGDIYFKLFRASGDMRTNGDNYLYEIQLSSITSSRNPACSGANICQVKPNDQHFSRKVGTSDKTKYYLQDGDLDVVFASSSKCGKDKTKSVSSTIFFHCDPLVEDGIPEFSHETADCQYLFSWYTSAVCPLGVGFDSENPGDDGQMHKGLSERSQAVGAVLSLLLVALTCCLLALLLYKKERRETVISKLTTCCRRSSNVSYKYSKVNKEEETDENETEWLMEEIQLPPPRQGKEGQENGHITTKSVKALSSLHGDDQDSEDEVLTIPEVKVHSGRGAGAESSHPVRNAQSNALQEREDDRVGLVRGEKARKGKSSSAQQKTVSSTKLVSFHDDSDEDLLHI

In the case of “cipa/mig-cipa/mig: treatment sequence: cipa/mig in PROPEL, continued cipa/mig in the open-label extension”, the “patients with treatment-emergent adverse events” value in data set [1] turned out to be 98.8%. The “mean change in % predicted 6MWD from PROPEL baseline to week 104” value in data set [2] (ERT-experienced patients) is “+3.1”; in [2] (ERT-naïve patients) it was “+8.6 (8.57)”. The “mean change in % predicted FVC from PROPEL baseline to week 104” value is −0.6 (7.50) in data set [3] (ERT-experienced patients) and −4.8 (6.48) in data set [3] (ERT-naïve patients). The “mean reduction in CK from PROPEL baseline to week 104” value was -132.1 (215.74) U/L in [4] (ERT-experienced patients) and −216.9 (243.66) U/L in [4] (ERT-naïve patients). Moreover, the results for the “mean reduction in Hex4 from PROPEL baseline to week 104” value in [5] (ERT-experienced patients) and in data set [5] (ERT-naïve patients) were -1.9 (3.22) mmol/mol and −2.9 (2.45) mmol/mol, respectively.

With `CCCCN1C[C@H](O)[C@@H](O)[C@H](O)[C@H]1CO` [miglustat, (2R,3R,4R,5S)-1-butyl-2-(hydroxymethyl)piperidine-3,4,5-triol], in data set [6], the “effect on sperm characteristics and fertility” value is “negatively affects sperm characteristics (motility and morphology), thereby reducing fertility”. The “effect on sperm concentration, motility, morphology” value in data set [7] is given as “No effect on sperm concentration, motility, or morphology”. Also, the “dose proportionality” value in [8] (130 mg to 260 mg) was “linear pharmacokinetics”. In [8] (setting [14]), this compound showed an AUC of approximately 25000 ng·h/mL and a Cmax of approximately 3000 ng/mL. Further, the “increase of AUC0-24 hr vs normal renal function” value (shortened to “increase of AUC0-24 hr”) in data set [8] (mild renal impairment (CLcr 60-89 mL/minute)) is 21%. Besides, in data set [8] (moderate renal impairment (CLcr 30-59 mL/minute)), the “increase of AUC0-24 hr” value is 26%. For the same compound, the “increase of AUC0-24 hr” value in [8] (severe renal impairment (CLcr 15-29 mL/minute)) turned out to be 31%. Moreover, in [9], the “increase of melting temperature (Tm) of ATB200 by addition of miglustat” value was approximately 10 °C and the “stabilization of ATB200” value is “stabilized ATB200 at pH 7.4 in a concentration-dependent manner”.

Take “MYOZYME®: alglucosidase alfa product marketed by Sanofi Genzyme; conventional rhGAA product”: the “rhGAA bound to the CIMPR (fraction of total enzyme)” value in data set [10] (M6P eluted) was 27%. Also, the “rhGAA that did not bind to the CIMPR (fraction of total enzyme)” value in data set [10] (flow through) came out at 73%. Also, the “single fiber appearance vs vehicle-treated mice” value in data set [11] was “did not show any significant difference as compared to vehicle-treated mice”.

As to “avalglucosidase alfa: recombinant human acid α-glucosidase, avalglucosidase alfa-ngpt; CAS 1802558-87-7”, in [12], the “long-term motor function by 6MWD after switching from alglucosidase alfa” value is listed as “continue to experience progressive loss of motor function as assessed by 6MWD” and the “long-term pulmonary function by FVC after switching from alglucosidase alfa” value is “progressive loss of pulmonary function as assessed by FVC”. Besides, in data set [13], the “relative effect, sensitivity analysis (RCT data only), 6MWT and FVC” value is “numerically favourable versus Alglu and placebo (6MWT and FVC)”.
